Earlier results, collected in patent US20160185712A1, “PHOTO-ACTIVATED HYDROGELS” (L'OREAL, priority 2014, published 2016).

water solubility: water soluble
SMILES: O=C1c2ccccc2C(=O)c2cc(S(=O)(=O)[O-])ccc21.[Na+] [anthraquinone-2-sulfonic acid sodium salt]
